Data reported in patent US8846741B2, “N-substituted aminobenzocycloheptene, aminotetraline, aminoindane and phenalkylamine derivatives, pharmaceutical compositions containing them, and their use in therapy” (AbbVie Deutschland GmbH & Co. KG, priority 2011, dated 2014).

How the values were obtained:
human GlyT1c transporter = human GlyT1c transporter (Homo sapiens (Human), UniProt P48067); test: Radioligand binding assay using recombinant CHO cell membranes expressing human GlyT1; conditions: read-out: radioligand binding Kiapp
Protocol: 2. Radioligand Binding Assays Using Recombinant CHO Cell Membranes Expressing Human GlyT1:
Radioligand binding to human GlyT1c transporter-expressing membranes was determined as described in Mezler et al., Molecular Pharmacology 74:1705-1715, 2008.

MDR1 (P-gp) = MDR1 (P-gp) (Homo sapiens (Human), UniProt P08183); test: Efflux ratio in MDR1-MDCK bidirectional transport; format: in vitro ADME; conditions: dog; MDR1-MDCK cell monolayers, 1 μM in HBSS-pH 7.4, 1 h incubation at 37 C
Protocol: 3. Determination of Efflux Ratio Using Madin-Darby Canine Kidney Type II Cells
Bidirectional transport experiments were performed on Madin-Darby Canine Kidney Type II cells over-expressing multidrug resistance protein 1 (MDR1-MDCK) to evaluate the compounds as potential P-gp substrates.
Compounds were added at 1 μM in HBSS-pH 7.4 (hanks balanced salt solution) to either the apical or basolateral side of MDR1-MDCK cell monolayers grown on Millicell 96-Cell polycarbonate filters. Samples were collected from both apical and basolateral sides at time 0 and after 1 h incubation at 37 C, compounds concentrations were measured by HPLC/MS/MS and permeability coefficients were then determined in both transport directions. The efflux ratio was subsequently calculated from the permeability coefficient.

Sequence of human GlyT1c transporter (P48067 whole entry): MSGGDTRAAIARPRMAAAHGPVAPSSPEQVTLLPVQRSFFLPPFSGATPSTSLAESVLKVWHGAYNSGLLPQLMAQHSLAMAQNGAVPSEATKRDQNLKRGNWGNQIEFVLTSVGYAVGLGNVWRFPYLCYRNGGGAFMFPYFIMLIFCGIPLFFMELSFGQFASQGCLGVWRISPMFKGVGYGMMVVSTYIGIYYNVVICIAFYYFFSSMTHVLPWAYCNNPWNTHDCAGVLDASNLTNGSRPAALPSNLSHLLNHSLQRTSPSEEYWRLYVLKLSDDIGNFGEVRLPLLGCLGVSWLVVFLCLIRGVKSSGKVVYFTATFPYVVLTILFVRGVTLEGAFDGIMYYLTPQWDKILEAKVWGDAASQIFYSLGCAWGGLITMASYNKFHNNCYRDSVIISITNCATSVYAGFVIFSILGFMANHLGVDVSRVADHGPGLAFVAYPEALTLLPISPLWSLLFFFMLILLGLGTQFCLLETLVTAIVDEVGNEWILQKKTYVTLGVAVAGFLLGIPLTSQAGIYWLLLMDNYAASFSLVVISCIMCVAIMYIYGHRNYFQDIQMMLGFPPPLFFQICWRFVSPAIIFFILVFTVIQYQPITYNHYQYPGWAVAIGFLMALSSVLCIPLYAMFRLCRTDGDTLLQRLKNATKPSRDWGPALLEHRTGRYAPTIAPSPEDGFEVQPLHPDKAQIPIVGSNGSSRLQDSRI
Sequence of MDR1 (P-gp) (P08183 whole entry, species assumed): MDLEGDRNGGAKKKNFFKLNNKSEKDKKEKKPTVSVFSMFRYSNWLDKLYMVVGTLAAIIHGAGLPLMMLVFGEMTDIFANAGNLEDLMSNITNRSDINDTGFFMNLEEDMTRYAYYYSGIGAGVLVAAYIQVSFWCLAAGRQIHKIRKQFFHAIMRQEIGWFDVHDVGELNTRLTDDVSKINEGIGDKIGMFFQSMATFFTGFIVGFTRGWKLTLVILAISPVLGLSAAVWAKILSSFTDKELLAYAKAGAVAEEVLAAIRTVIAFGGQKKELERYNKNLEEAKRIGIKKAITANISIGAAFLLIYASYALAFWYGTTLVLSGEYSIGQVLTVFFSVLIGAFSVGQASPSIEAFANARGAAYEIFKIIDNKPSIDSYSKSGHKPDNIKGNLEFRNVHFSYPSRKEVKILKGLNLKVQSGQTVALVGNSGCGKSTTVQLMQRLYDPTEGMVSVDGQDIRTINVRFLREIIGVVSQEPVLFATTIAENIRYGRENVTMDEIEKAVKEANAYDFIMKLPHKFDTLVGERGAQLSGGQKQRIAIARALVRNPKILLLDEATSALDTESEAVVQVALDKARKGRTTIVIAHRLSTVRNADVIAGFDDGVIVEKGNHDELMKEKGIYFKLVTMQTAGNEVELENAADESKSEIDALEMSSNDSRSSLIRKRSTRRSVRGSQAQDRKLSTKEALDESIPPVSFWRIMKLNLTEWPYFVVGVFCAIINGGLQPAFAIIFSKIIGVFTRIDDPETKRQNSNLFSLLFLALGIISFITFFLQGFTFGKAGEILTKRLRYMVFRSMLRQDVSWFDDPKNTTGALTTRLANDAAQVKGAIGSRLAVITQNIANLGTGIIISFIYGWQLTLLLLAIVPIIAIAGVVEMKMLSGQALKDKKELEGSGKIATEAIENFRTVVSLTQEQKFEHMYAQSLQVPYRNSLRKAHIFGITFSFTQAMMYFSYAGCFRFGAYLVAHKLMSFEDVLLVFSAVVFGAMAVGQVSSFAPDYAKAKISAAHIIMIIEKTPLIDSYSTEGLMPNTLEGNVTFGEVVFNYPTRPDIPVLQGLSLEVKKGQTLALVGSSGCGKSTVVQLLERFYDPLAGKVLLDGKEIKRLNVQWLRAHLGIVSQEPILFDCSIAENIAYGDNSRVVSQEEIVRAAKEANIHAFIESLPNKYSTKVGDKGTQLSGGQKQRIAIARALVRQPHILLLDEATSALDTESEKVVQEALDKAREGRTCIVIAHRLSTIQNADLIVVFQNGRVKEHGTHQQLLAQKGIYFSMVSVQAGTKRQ

Ki (human GlyT1c transporter) | efflux ratio at 1 h, 1 μM (MDR1 (P-gp)) | Compound
< 10 nM | 3.2 | Cn1cnc(S(=O)(=O)NCc2ccc3c(c2)C(Cc2ccccc2)C(N2CC4CC4C2)CC3)c1.O=C(O)/C=C/C(=O)O (stereo not drawn) [Example 1, cis-N-({7-[3-Azabicyclo[3.1.0]hex-3-yl]-8-benzyl-5,6,7,8-tetrahydronaphthalen-2-yl}methyl)-1-methyl-1H-imidazole-4-sulfonamide(2E)-but-2-enedioate]
< 10 nM | – | Cn1cnc(S(=O)(=O)NCCOc2ccc3c(c2)C(Cc2ccccc2)C(N2CC4CC4C2)CC3)c1 (centres unmarked) [Example 2, N-[2-({7-[3-Azabicyclo[3.1.0]hex-3-yl]-8-benzyl-5,6,7,8-tetrahydronaphthalen-2-yl}oxy)ethyl]-1-methyl-1H-imidazole-4-sulfonamide(2E)-but-2-enedioate]
< 1000 nM | – | Cn1cnc(S(=O)(=O)NCCOc2cc3c(cc2C#N)CCC(N2CC4CC4C2)C3Cc2ccccc2)c1 (centres unmarked) [Example 10, N-[2-({7-[3-Azabicyclo[3.1.0]hex-3-yl]-8-benzyl-3-cyano-5,6,7,8-tetrahydronaphthalen-2-yl}oxy)ethyl]-1-methyl-1H-imidazole-4-sulfonamide(2E)-but-2-enedioate]
< 1000 nM | – | Cn1cnc(S(=O)(=O)NCCOc2ccc3c(c2)C(Cc2ccccc2F)C(N2CC4CC4C2)CC3)c1 (centres unmarked) [Example 5, N-(2-{[7-[3-Azabicyclo[3.1.0]hex-3-yl]-8-(2-fluorobenzyl)-5,6,7,8-tetrahydronaphthalen-2-yl]oxy}ethyl)-1-methyl-1H-imidazole-4-sulfonamide]

Continued, molecule first:

Compound | Ki (human GlyT1c transporter) | efflux ratio at 1 h, 1 μM (MDR1 (P-gp))
CCS(=O)(=O)NCc1ccc2c(c1)C(Cc1ccccc1)C(NC1(C#N)COC1)CC2 (centres unmarked) [Example 6, N-((8-Benzyl-7-(3-cyanooxetan-3-ylamino)-5,6,7,8-tetrahydronaphthalen-2-yl)methyl)ethanesulfonamide] | < 1000 nM | –
N#CC1(NC2CCc3ccc(CNS(=O)(=O)CC4CC4)cc3C2Cc2ccccc2)COC1 (centres unmarked) [Example 9, N-((8-Benzyl-7-(3-cyanooxetan-3-ylamino)-5,6,7,8-tetrahydronaphthalen-2-yl)methyl)-1-cyclopropylmethanesulfonamide] | < 100 nM | 3.5
N#CC1(NC2CCc3ccc(CNS(=O)(=O)C4CCC4)cc3C2Cc2ccccc2)COC1 (centres unmarked) [Example 8, N-((8-Benzyl-7-(3-cyanooxetan-3-ylamino)-5,6,7,8-tetrahydronaphthalen-2-yl)methyl)cyclobutanesulfonamide] | < 1000 nM | –
Cn1cc(S(=O)(=O)NCCOc2ccc3c(c2)C(Cc2ccccc2)C(N2CC4CC4C2)CC3)cn1 (centres unmarked) [Example 3, N-[2-({7-[3-Azabicyclo[3.1.0]hex-3-yl]-8-benzyl-5,6,7,8-tetrahydronaphthalen-2-yl}oxy)ethyl]-1-methyl-1H-pyrazole-4-sulfonamide(2E)-but-2-enedioate] | < 10 nM | –
CCCS(=O)(=O)NCc1ccc2c(c1)C(Cc1ccccc1)C(NC1(C#N)COC1)CC2 (centres unmarked) [Example 7, N-((8-Benzyl-7-(3-cyanooxetan-3-ylamino)-5,6,7,8-tetrahydronaphthalen-2-yl)methyl)propane-1-sulfonamide] | < 1000 nM | –
